# According to PubChem BioAssay (NCI):
#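 Compound exposure: 48 hours, 5 concentrations, 96-well plates. TGI: total growth inhibition.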
# Assays:
# Experiment in all cases: NCI anticancer screen, dose series, 48 h
# 786-0 renal = system: 786-0 renal
# A549 NSCLC = system: A549 NSCLC
# ACHN renal = system: ACHN renal
# BT-549 breast = system: BT-549 breast
# CAKI-1 renal = system: CAKI-1 renal
# CCRF-CEM leukemia = system: CCRF-CEM leukemia
# COLO 205 colon = system: COLO 205 colon
# DU-145 prostate = system: DU-145 prostate
# EKVX NSCLC = system: EKVX NSCLC
# HCC-2998 colon = system: HCC-2998 colon
# HCT-116 colon = system: HCT-116 colon
# HCT-15 colon = system: HCT-15 colon
# HL-60(TB) leukemia = system: HL-60(TB) leukemia
# HOP-62 NSCLC = system: HOP-62 NSCLC
# HOP-92 NSCLC = system: HOP-92 NSCLC
# HS 578T breast = system: HS 578T breast
# HT29 colon = system: HT29 colon
# IGROV1 ovarian = system: IGROV1 ovarian
# K-562 leukemia = system: K-562 leukemia
# KM12 colon = system: KM12 colon
# LOX IMVI melanoma = system: LOX IMVI melanoma
# M14 melanoma = system: M14 melanoma
# MALME-3M melanoma = system: MALME-3M melanoma
# MCF7 breast = system: MCF7 breast
# MDA-MB-231 breast = system: MDA-MB-231 breast
# MDA-MB-435 = system: MDA-MB-435
# MDA-N = system: MDA-N
# MOLT-4 leukemia = system: MOLT-4 leukemia
# NCI-H226 lung = system: NCI-H226 lung
# NCI-H23 lung = system: NCI-H23 lung
# NCI-H460 lung = system: NCI-H460 lung
# NCI-H522 lung = system: NCI-H522 lung
# NCI/ADR-RES ovarian = system: NCI/ADR-RES ovarian
# OVCAR-3 ovarian = system: OVCAR-3 ovarian
# OVCAR-4 ovarian = system: OVCAR-4 ovarian
# OVCAR-5 ovarian = system: OVCAR-5 ovarian
# OVCAR-8 ovarian = system: OVCAR-8 ovarian
# PC-3 prostate = system: PC-3 prostate
# RPMI-8226 leukemia = system: RPMI-8226 leukemia
# RXF 393 renal = system: RXF 393 renal
# SF-268 CNS = system: SF-268 CNS
# SF-295 CNS = system: SF-295 CNS
# SF-539 CNS = system: SF-539 CNS
# SK-MEL-2 melanoma = system: SK-MEL-2 melanoma
# SK-MEL-28 melanoma = system: SK-MEL-28 melanoma
# SK-MEL-5 melanoma = system: SK-MEL-5 melanoma
# SK-OV-3 ovarian = system: SK-OV-3 ovarian
# SN12C renal = system: SN12C renal
# SNB-19 CNS = system: SNB-19 CNS
# SNB-75 CNS = system: SNB-75 CNS
# SR leukemia = system: SR leukemia
# SW-620 colon = system: SW-620 colon
# T-47D breast = system: T-47D breast
# TK-10 renal = system: TK-10 renal
# U251 CNS = system: U251 CNS
# UACC-257 melanoma = system: UACC-257 melanoma
# UACC-62 melanoma = system: UACC-62 melanoma
# UO-31 renal = system: UO-31 renal
compound,measurement,setting,value
ClCc1nc2cc(Cl)ccc2o1,TGI,786-0 renal,3.34 µM
same,TGI,A549 NSCLC,42.2 µM
same,TGI,ACHN renal,3.33 µM
same,TGI,BT-549 breast,28.2 µM
same,TGI,CAKI-1 renal,3.24 µM
same,TGI,CCRF-CEM leukemia,> 25.7 µM
same,TGI,COLO 205 colon,9 µM
same,TGI,DU-145 prostate,14.1 µM
same,TGI,EKVX NSCLC,8.89 µM
same,TGI,HCC-2998 colon,5.9 µM
same,TGI,HCT-116 colon,20.4 µM
same,TGI,HCT-15 colon,16.7 µM
same,TGI,HL-60(TB) leukemia,21.1 µM
same,TGI,HOP-62 NSCLC,8.28 µM
same,TGI,HOP-92 NSCLC,3.87 µM
same,TGI,HS 578T breast,> 61.5 µM
same,TGI,HT29 colon,6.5 µM
same,TGI,IGROV1 ovarian,3.29 µM
same,TGI,K-562 leukemia,> 100 µM
same,TGI,KM12 colon,28.6 µM
same,TGI,LOX IMVI melanoma,6.74 µM
same,TGI,M14 melanoma,17.4 µM
same,TGI,MALME-3M melanoma,27.3 µM
same,TGI,MCF7 breast,7.65 µM
same,TGI,MDA-MB-231 breast,10.2 µM
same,TGI,MDA-MB-435,8.07 µM
same,TGI,MDA-N,21.4 µM
same,TGI,MOLT-4 leukemia,> 100 µM
same,TGI,NCI-H226 lung,42.9 µM
same,TGI,NCI-H23 lung,24.6 µM
same,TGI,NCI-H460 lung,31.6 µM
same,TGI,NCI-H522 lung,3.37 µM
same,TGI,NCI/ADR-RES ovarian,98.4 µM
same,TGI,OVCAR-3 ovarian,4.07 µM
same,TGI,OVCAR-4 ovarian,3.45 µM
same,TGI,OVCAR-5 ovarian,38.6 µM
same,TGI,OVCAR-8 ovarian,20 µM
same,TGI,PC-3 prostate,19.6 µM
same,TGI,RPMI-8226 leukemia,4.07 µM
same,TGI,RXF 393 renal,29.8 µM
same,TGI,SF-268 CNS,26.7 µM
same,TGI,SF-295 CNS,37.4 µM
same,TGI,SF-539 CNS,17.8 µM
same,TGI,SK-MEL-2 melanoma,16 µM
same,TGI,SK-MEL-28 melanoma,20.7 µM
same,TGI,SK-MEL-5 melanoma,25.8 µM
same,TGI,SK-OV-3 ovarian,28.9 µM
same,TGI,SN12C renal,20.9 µM
same,TGI,SNB-19 CNS,21.5 µM
same,TGI,SNB-75 CNS,24.1 µM
same,TGI,SR leukemia,> 37 µM
same,TGI,SW-620 colon,> 67.2 µM
same,TGI,T-47D breast,5.15 µM
same,TGI,TK-10 renal,7.9 µM
same,TGI,U251 CNS,9.13 µM
same,TGI,UACC-257 melanoma,22.8 µM
same,TGI,UACC-62 melanoma,23.1 µM
same,TGI,UO-31 renal,2.54 µM
